# Reference: patent US8586782B2, “Phenylacetic acid derivatives” (Novartis AG, priority 2006, dated 2013)
# How the values were obtained:
# COX-2 = biological target: T1, COX-2 (Homo sapiens, UniProt P35354); assay: COX-2 inhibition in human whole blood (LPS-induced PGE2 production); assay type: cell-based; conditions: PGE2 after LPS 10 μg/mL overnight, average where more than one assay, read-out: COX-2_Blood IC50 [μM] (Avg)
# T1 construct: COX-2 expression is induced in mononuclear cells by treatment with lipopolysaccharide (LPS); endogenous in cells; host or cells: heparinized human whole blood (mononuclear cells, LPS-induced)
# T1 sequence (P35354 18-604): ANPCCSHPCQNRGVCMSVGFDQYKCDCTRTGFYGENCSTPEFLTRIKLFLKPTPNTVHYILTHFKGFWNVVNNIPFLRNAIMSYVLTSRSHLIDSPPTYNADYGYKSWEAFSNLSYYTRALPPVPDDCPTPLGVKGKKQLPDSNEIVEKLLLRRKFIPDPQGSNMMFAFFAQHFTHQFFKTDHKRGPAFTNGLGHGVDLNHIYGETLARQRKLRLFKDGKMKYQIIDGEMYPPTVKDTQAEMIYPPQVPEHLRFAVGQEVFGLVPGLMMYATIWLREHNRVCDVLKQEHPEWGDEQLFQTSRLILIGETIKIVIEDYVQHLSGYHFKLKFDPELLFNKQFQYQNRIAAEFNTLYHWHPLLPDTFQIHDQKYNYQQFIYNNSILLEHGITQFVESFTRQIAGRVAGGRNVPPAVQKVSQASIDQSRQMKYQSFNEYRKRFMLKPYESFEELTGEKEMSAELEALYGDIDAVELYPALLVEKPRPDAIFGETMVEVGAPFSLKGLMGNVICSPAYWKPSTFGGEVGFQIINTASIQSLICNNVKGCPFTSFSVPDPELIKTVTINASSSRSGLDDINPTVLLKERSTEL
# Method: (§1) In vitro COX-1 and COX-2 inhibition is also determined in human whole blood where COX-1 is constitutively expressed in platelets and COX-2 expression is induced in mononuclear cells by treatment with lipopolysaccharide (LPS) (10 μg/mL). For this assay heparinized human blood is divided into two aliquots: one for measuring TxB2 production (a surrogate indicator of COX-1 activity) and a second for measuring PGE2 production (a surrogate for COX-2 activity). The blood samples are pretreated with test compounds for one hour before stimulation. Compounds are tested in a final concentration range from 0.1 nM to 300 μM using half log increases in concentrations. To measure inhibition of thromboxane B2 (TxB2) generation, A23187 (50 μM) is added, and the blood incubated for one hour. PGE2 production is measured after the addition of LPS (10 μg/mL) followed by overnight incubation. After incubation with A23187 or LPS the samples are centrifuged at 250×g for 10 minutes at 4° C. to collect serum. The amounts PGE2 and TxB2 present in the serum are measured using a chemiluminesence enzyme immunoassay from Assay Designs Inc. (Ann Arbor, Mich.). The levels of prostaglandin in each sample are normalized to the percent inhibition caused by each concentration of the test compound. The percent inhibition data for each donor is pooled and fitted to a 4-parameter logistic function using a regression.
# COX-1 = biological target: T2, COX-1 (Homo sapiens, UniProt P23219); assay: COX-1 inhibition in human whole blood (A23187-stimulated TxB2 production); assay type: cell-based; conditions: TxB2 after A23187 50 μM 1 h, average where more than one assay, read-out: COX-1_Blood IC50 [μM] (Avg)
# T2 construct: COX-1 is constitutively expressed in platelets; endogenous in cells; host or cells: heparinized human whole blood (platelets, A23187-stimulated)
# T2 sequence (P23219 24-599): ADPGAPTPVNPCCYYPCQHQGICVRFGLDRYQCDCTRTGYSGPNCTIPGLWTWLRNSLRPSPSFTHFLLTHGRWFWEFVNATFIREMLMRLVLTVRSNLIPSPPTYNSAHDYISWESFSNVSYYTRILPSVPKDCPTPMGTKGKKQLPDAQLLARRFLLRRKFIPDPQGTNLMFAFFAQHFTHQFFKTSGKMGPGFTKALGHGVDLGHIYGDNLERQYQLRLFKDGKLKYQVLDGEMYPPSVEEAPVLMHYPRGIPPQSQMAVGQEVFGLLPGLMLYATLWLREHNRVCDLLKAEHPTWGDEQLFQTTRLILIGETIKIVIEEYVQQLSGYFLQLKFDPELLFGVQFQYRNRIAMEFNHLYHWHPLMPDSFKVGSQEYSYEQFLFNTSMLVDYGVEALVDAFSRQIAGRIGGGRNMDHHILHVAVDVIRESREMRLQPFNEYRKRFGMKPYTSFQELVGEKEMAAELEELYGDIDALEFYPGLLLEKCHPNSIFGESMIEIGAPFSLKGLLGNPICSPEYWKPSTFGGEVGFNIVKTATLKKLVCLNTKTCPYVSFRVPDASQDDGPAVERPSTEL
# Method: as §1
IC50 (COX-2),IC50 (COX-1),Compound
0.1 µM,155 µM,"CCc1ccc(Nc2ccc(C)c(C(F)(F)F)c2F)c(CC(=O)O)c1 [Example 5a, 5-Ethyl-2-(2′-fluoro-4′-methyl-3′-trifluoromethylanilino)phenylacetic acid]"
0.073 µM,126 µM,"Cc1ccc(Nc2ccc(Cl)c(C)c2Cl)c(CC(=O)O)c1 [Example 5e, 5-Methyl-2-(2′,4′-dichloro-3′-methylanilino)phenylacetic acid]"
0.295 µM,129 µM,"Cc1ccc(Nc2ccc(Cl)c(C)c2F)c(CC(=O)O)c1 [Example 5i, 5-Methyl-2-(2′-fluoro-4′-chloro-3′-methylanilino)phenylacetic acid]"
0.165 µM,183 µM,"CCc1c(Cl)ccc(Nc2ccc(C)cc2CC(=O)O)c1F [Example 5k, 5-Methyl-2-(2′-fluoro-4′-chloro-3′-ethylanilino)phenylacetic acid]"
0.17 µM,127 µM,"CCc1ccc(Nc2ccc(Cl)c(C(C)C)c2F)c(CC(=O)O)c1 [Example 5m, 5-Ethyl-2-(2′-fluoro-4′-chloro-3′-isopropylanilino)phenylacetic acid]"
